What all share (format): in vivo, mouse
The subject of assay [1] is YUMM 1.7 cells (BRafV600E/wt Pten−/−Cdkn2−/−). The assay can be described thus: YUMM 1.7 melanoma in C57BL/6 mice treated with G-1 with and without αPD-1. As to conditions: YUMM 1.7, treatment initiated at day 14. The text has this: FIGS. 14A-14F illustrate the finding that treatment of melanoma bearing mice with G-1 and αPD-1 immunotherapy dramatically extends survival. FIG. 14A: Experimental timeline of B16F10 bearing mice treated with vehicle or G-1, as well as αPD-1 antibody or isotype antibody control (2A3), n=10 per group. FIG. 14B: Tumor volumes of treatment groups at Day 14, * denotes significance One-way ANOVA with Tukey's multiple comparison test. FIG. 14C: Survival curve of mice treated with vehicle or G-1, as well as isotype antibody control (2A3) or αPD-1 antibody. FIG. 14D: Experimental outline of YUMM1.7 bearing mice treated with vehicle or G-1, as well as isotype antibody control (2A3) or αPD-1 antibody. Treatment was started at day 14 after tumors reached 4-5 mm in diameter. n=5 per group. FIG. 14E: Tumor volumes over time of treatment groups. FIG. 14F: Survival curve of mice treated with vehicle or G-1, as well as αPD-1 antibody or isotype antibody control (2A3).
Although B16F10 melanoma is the most commonly used model for melanoma immunology studies, and experimental results have largely translated to humans, B16F10 lacks the BRaf or NRas oncodriver mutations present in most human melanomas. […]

A further assay has as its system PDAC tumors. The assay can be described thus: PDAC tumor bearing mice treated with G-1. The note with it: tumors grown 18 days, dosing on 3 consecutive days, follow-up 4 days; 2 independent PDAC cell lines.
In assay [2] the test system is murine B16F10 melanoma cells. The assay can be described thus: G-1-pretreated B16F10 cells injected into syngeneic C57BL/6 mice, then αPD-1 antibody or isotype control. As to conditions: B16F10 cells pretreated in vitro.
Description: FIG. 13D: Experimental timeline of vehicle or G-1 pre-treatment of B16F10 cells followed by treatment with either αPD-1 antibody or isotype antibody control (2A3), n=5 per group. FIG. 13E: Tumor volumes of treatment groups at Day 14, * denotes significance One-way ANOVA with Tukey's multiple comparison test. FIG. 13F: Survival curve of mice with tumors pre-treated with vehicle or G-1, followed by isotype antibody control (2A3) or αPD-1 antibody.
To determine whether tumor cell intrinsic GPER signaling influences melanoma vulnerability to immune checkpoint therapy, studies were performed, based on the observation that GPER-driven differentiation is long lasting. G-1 was used to activate GPER and drive differentiation in murine B16F10 melanoma cells in vitro (FIG. 13D). Then, equal numbers of vehicle or G-1-treated tumor cells were injected into syngeneic C57BL/6 mice and the animals were treated with either αPD-1 antibody or isotype antibody control.
Assay [3] concerns tumor infiltrating immune cells. The assay can be described thus: immune profiling of tumors in YUMM 1.7 melanoma bearing mice. The text has this: FIGS. 15A-15C illustrate the finding that G-1 treatment in vivo alters tumor infiltrating immune cells. […] FIG. 15B: Heatmap summarizing immune profiling across biological replicates, n=5 per group, * denotes significance by two-way ANOVA assuming each immune population is an independent measurement of immune activation. FIG. 15C: Quantification of individual immune populations from FIG. 15B, n=5 per group.

Take `CC(=O)c1ccc2c(c1)[C@@H]1C=CC[C@@H]1[C@H](c1cc3c(cc1Br)OCO3)N2` (relative stereo) [Compound G-1, rel-1-[4-(6-bromo-1,3-benzodioxol-5-yl)-3aR,4S,5,9bS-tetrahydro-3H-cyclopenta[c]quinolin-8-yl]-ethanone]: the survival result in assay [1] is listed as “modest, but significant, survival increases”. Besides, the “tumor size (tumor weights)” value with PDAC tumors is on record as “significantly smaller”. In assay [2], the subsequent tumor growth result is “inhibited subsequent tumor growth” and the survival result was “extended survival compared to controls”. Also, the “tumor infiltrating immune cell subsets” value in assay [3] was “increased several immune cell subsets, including T cells and NK cells”.

Source of the values: patent US11369618B2, “Compounds, compositions and methods for prevention and/or treatment of cancer” (THE TRUSTEES OF THE UNIVERSITY OF PENNSYLVANIA, priority 2016, dated 2022).
